Tested on: subjects with COPD
Assay: Phase IIa placebo-controlled crossover dose-ranging study, heart rate (vital signs) after single inhaled dose
Format: in vivo, human
Conditions: for Adjusted Mean for Average Change in Heart Rate from Test day Baseline: ANCOVA
Method: The study was a Phase IIa, multi-centre, randomised, double-blind, placebo-controlled, crossover, dose-ranging study using four dose levels of glycopyrronium bromide in subjects with COPD. A total of 40 subjects were required to complete the study.
Subjects were randomised to receive a single inhaled dose of 20, 125, 250 and 400 μg of glycopyrronium bromide in ascending order, with a placebo dose randomised into the sequence over 5 study visits. Subjects were randomised to receive treatment on Study Day 1 prior to dosing. All doses, including placebo, were administered using the Miat Monohaler.
The Treatment period then consisted of five study visits (separated by a 5-14-day wash-out period), during which subjects were dosed with a single inhaled dose of glycopyrronium bromide using a Miat Monohaler, in ascending order (20, 125, 250 or 400 μg). A placebo was randomly administered (using a Miat Monohaler) at one of the study visits; subsequent visits continued with the next highest dose of glycopyrronium bromide to that which was administered prior to the placebo.
All subjects were scheduled to be dosed between 08:00 and 10:00 am. For individual subjects, dosing was at the same time of day (±30 minutes). At each dosing visit, subjects received a single dose of glycopyrronium bromide or placebo administered via Miat Monohaler. Each different dose (20, 125, 250 or 400 μg) was contained in one capsule. An appropriate number of Miat Monohalers to conduct the study was also supplied to the site. A new Miat Monohaler was used to administer each dose at each visit.
copyrronium bromide was presented in size 3, white opaque, hard, gelatin capsules packaged in aluminium pouches. The capsules were presented in four dose strengths containing 20, 125, 250, or 400 μg glycopyrronium bromide. In addition to glycopyrronium bromide, excipient present in the capsule formulation consisted of the PowderHale^TM formulation of lactose and magnesium stearate.
All vital signs were measured on each study day, including heart rate (with the subject semi-supine for 5 minutes prior to measurement); blood pressure; respiratory rate and temperature were measured at each visit and before receiving study medication (pre-treatment), if applicable. Blood pressure and heart rate were also measured at 45, 90 minutes and 5, 10, 20 and 30 hours post-treatment on study days.
The statistical analyses were to be reported using summary tables and data listings. Statistical tests for the evaluation were to be performed at the 0.05 significance level using a two-sided test.
All analyses and tabulations were to be performed using SASS Version 6.12 on a PC platform. Continuous variables were to be summarised with sample size (n), mean, standard deviation (SD), minimum, median, and maximum. […] The mean was to have one extra decimal place and the standard deviation was to have two extra decimal places. Categorical variables were to be summarised with number and percentage of subjects.

[1] = 20 μg single inhaled dose, 45 mins post-dose
[2] = 20 μg single inhaled dose, 90 mins post-dose
[3] = 20 μg single inhaled dose, 5 hrs post-dose
[4] = 20 μg single inhaled dose, 10 hrs post-dose
[5] = 20 μg single inhaled dose, 20 hrs post-dose
[6] = 20 μg single inhaled dose, 30 hrs post-dose
[7] = 20 μg single inhaled dose, pre-dose to 45 mins post-dose
[8] = 20 μg single inhaled dose, pre-dose to 90 mins post-dose
[9] = 20 μg single inhaled dose, pre-dose to 5 hours post-dose
[10] = 20 μg single inhaled dose, pre-dose to 10 hours post-dose
[11] = 20 μg single inhaled dose, pre-dose to 20 hours post-dose
[12] = 125 μg single inhaled dose, 45 mins post-dose
[13] = 125 μg single inhaled dose, 90 mins post-dose
[14] = 125 μg single inhaled dose, 5 hrs post-dose
[15] = 125 μg single inhaled dose, 10 hrs post-dose
[16] = 125 μg single inhaled dose, 20 hrs post-dose
[17] = 125 μg single inhaled dose, 30 hrs post-dose
[18] = 125 μg single inhaled dose, pre-dose to 45 mins post-dose
[19] = 125 μg single inhaled dose, pre-dose to 90 mins post-dose
[20] = 125 μg single inhaled dose, pre-dose to 5 hours post-dose
[21] = 125 μg single inhaled dose, pre-dose to 10 hours post-dose
[22] = 125 μg single inhaled dose, pre-dose to 20 hours post-dose
[23] = 125 μg single inhaled dose, pre-dose to 30 hours post-dose

C[N+]1(C)CCC(OC(=O)C(O)(c2ccccc2)C2CCCC2)C1 (stereo not drawn) [glycopyrronium bromide]
Heart Rate Mean [1]: 70.3 bpm
Heart Rate Median [1]: 68.0 bpm
Heart Rate Mean [2]: 72.5 bpm
Heart Rate Median [2]: 71.0 bpm
Heart Rate Mean [3]: 72.8 bpm
Heart Rate Median [3]: 74.0 bpm
Heart Rate Mean [4]: 69.1 bpm
Heart Rate Median [4]: 68.0 bpm
Heart Rate Mean [5]: 68.8 bpm
Heart Rate Median [5]: 69.5 bpm
Heart Rate Mean [6]: 69.8 bpm
Heart Rate Median [6]: 70.0 bpm
Heart Rate Change from Test day Baseline, Mean [7]: −2.5 bpm
Heart Rate Change from Test day Baseline, Median [7]: −2.0 bpm
Heart Rate Change from Test day Baseline, Mean [8]: −0.2 bpm
Heart Rate Change from Test day Baseline, Median [8]: 0.0 bpm
Heart Rate Change from Test day Baseline, Mean [9]: −0.0 bpm
Heart Rate Change from Test day Baseline, Median [9]: 1.0 bpm
Heart Rate Change from Test day Baseline, Mean [10]: −3.4 bpm
Heart Rate Change from Test day Baseline, Median [10]: −1.0 bpm
Heart Rate Change from Test day Baseline, Mean [11]: −3.6 bpm
Heart Rate Change from Test day Baseline, Median [11]: −3.0 bpm
Heart Rate Change from Test day Baseline, Mean (20 μg single inhaled dose, pre-dose to 30 hours post-dose): −2.7 bpm
Adjusted Mean for Average Change in Heart Rate from Test day Baseline (20 μg, to 45 mins post-dose): −2.323 bpm
Dose v Placebo Difference, adjusted mean change in Heart Rate from Test day Baseline (20 μg, to 45 mins post-dose, p-value 0.997): 0.005 bpm
Adjusted Mean for Average Change in Heart Rate from Test day Baseline (20 μg, to 90 mins post-dose): 0.033 bpm
Dose v Placebo Difference, adjusted mean change in Heart Rate from Test day Baseline (20 μg, to 90 mins post-dose, p-value 0.489): −1.239 bpm
Adjusted Mean for Average Change in Heart Rate from Test day Baseline (20 μg, to 5 hours post-dose): 1.933 bpm
Dose v Placebo Difference, adjusted mean change in Heart Rate from Test day Baseline (20 μg, to 5 hours post-dose, p-value 0.945): −0.114 bpm
Adjusted Mean for Average Change in Heart Rate from Test day Baseline (20 μg, to 10 hours post-dose): −0.126 bpm
Dose v Placebo Difference, adjusted mean change in Heart Rate from Test day Baseline (20 μg, to 10 hours post-dose, p-value 0.349): 1.698 bpm
Adjusted Mean for Average Change in Heart Rate from Test day Baseline (20 μg, to 20 hours post-dose): −4.339 bpm
Dose v Placebo Difference, adjusted mean change in Heart Rate from Test day Baseline (20 μg, to 20 hours post-dose, p-value 0.068): −2.872 bpm
Adjusted Mean for Average Change in Heart Rate from Test day Baseline (20 μg, to 30 hours post-dose): −0.880 bpm
Dose v Placebo Difference, adjusted mean change in Heart Rate from Test day Baseline (20 μg, to 30 hours post-dose, p-value 0.379): −1.499 bpm
Heart Rate Mean [12]: 65.5 bpm
Heart Rate Median [12]: 63.5 bpm
Heart Rate Mean [13]: 67.6 bpm
Heart Rate Median [13]: 69.0 bpm
Heart Rate Mean [14]: 70.6 bpm
Heart Rate Median [14]: 73.0 bpm
Heart Rate Mean [15]: 67.0 bpm
Heart Rate Median [15]: 67.0 bpm
Heart Rate Mean [16]: 66.4 bpm
Heart Rate Median [16]: 66.0 bpm
Heart Rate Mean [17]: 72.1 bpm
Heart Rate Median [17]: 72.0 bpm
Heart Rate Change from Test day Baseline, Mean [18]: −3.8 bpm
Heart Rate Change from Test day Baseline, Median [18]: −4.0 bpm
Heart Rate Change from Test day Baseline, Mean [19]: −1.8 bpm
Heart Rate Change from Test day Baseline, Median [19]: −2.0 bpm
Heart Rate Change from Test day Baseline, Mean [20]: 1.2 bpm
Heart Rate Change from Test day Baseline, Median [20]: 0.5 bpm
Heart Rate Change from Test day Baseline, Mean [21]: −2.1 bpm
Heart Rate Change from Test day Baseline, Median [21]: −3.0 bpm
Heart Rate Change from Test day Baseline, Mean [22]: −2.5 bpm
Heart Rate Change from Test day Baseline, Median [22]: −1.5 bpm
Heart Rate Change from Test day Baseline, Mean [23]: 2.8 bpm
Heart Rate Change from Test day Baseline, Median [23]: 1.0 bpm
Adjusted Mean for Average Change in Heart Rate from Test day Baseline (125 μg, to 45 mins post-dose): −2.854 bpm
Dose v Placebo Difference, adjusted mean change in Heart Rate from Test day Baseline (125 μg, to 45 mins post-dose, p-value 0.712): −0.526 bpm
Adjusted Mean for Average Change in Heart Rate from Test day Baseline (125 μg, to 90 mins post-dose): −0.650 bpm
Dose v Placebo Difference, adjusted mean change in Heart Rate from Test day Baseline (125 μg, to 90 mins post-dose, p-value 0.240): −1.921 bpm
Adjusted Mean for Average Change in Heart Rate from Test day Baseline (125 μg, to 5 hours post-dose): 2.382 bpm
Dose v Placebo Difference, adjusted mean change in Heart Rate from Test day Baseline (125 μg, to 5 hours post-dose, p-value 0.826): 0.335 bpm
Adjusted Mean for Average Change in Heart Rate from Test day Baseline (125 μg, to 10 hours post-dose): −0.186 bpm
Dose v Placebo Difference, adjusted mean change in Heart Rate from Test day Baseline (125 μg, to 10 hours post-dose, p-value 0.339): 1.638 bpm
Adjusted Mean for Average Change in Heart Rate from Test day Baseline (125 μg, to 20 hours post-dose): −1.590 bpm
Dose v Placebo Difference, adjusted mean change in Heart Rate from Test day Baseline (125 μg, to 20 hours post-dose, p-value 0.932): −0.123 bpm
Adjusted Mean for Average Change in Heart Rate from Test day Baseline (125 μg, to 30 hours post-dose): 2.796 bpm
Dose v Placebo Difference, adjusted mean change in Heart Rate from Test day Baseline (125 μg, to 30 hours post-dose, p-value 0.168): 2.177 bpm
Heart Rate Mean (250 μg single inhaled dose, 45 mins post-dose): 65.1 bpm

— patent publication US10695321B2, “Use of glycopyrrolate for treating tachycardia” (Heptares Therapeutics Limited, priority 2011, dated 2020)
